Laboratory results reported in PMC4933729 (Clinical Pharmacokinetics, 2016).
Several values for one entry are separate records, joined by “and”; a condition that tells them apart may be missing. Identical values can stand only once. Like-named read-outs stand apart in the source and are kept apart here.

How the values were obtained:
[1] = type: in vivo, healthy volunteers; conditions: for Tmax: both, human, plasma, oral; for AUC from time zero to time t (AUCt) decrease: data not shown
[2] = system: CYP enzymes, OCT1/OCT2, MATE 1, glucuronidation; conditions: cited from earlier work
[3] = coadministered with the 3D regimen; cited from earlier work
[4] = type: in vivo, healthy volunteers; conditions: for change in exposures: with any of the coadministered medications, apart from stated exceptions
[5] = coadministration with ritonavir; cited from earlier work
[6] = Safety and tolerability assessments in the phase I studies; type: in vivo, healthy subjects; conditions: carisoprodol arm
[7] = alone and with the 3D regimen (not affected / similar)
[8] = in the presence of the 3D regimen
[9] = upon coadministration with the 3D regimen
[10] = coadministration with the 3D regimen

CN(C)C(=N)N=C(N)N [Metformin]
median tmax [1, 7]: 4.0 h
Cmax decrease [1, 8]: 23%
AUC decrease [1, 8]: < 20% and 10%
Metabolic pathway [2]: OCT1/OCT2 substrate

COc1ccc2[nH]c([S+]([O-])Cc3ncc(C)c(OC)c3C)nc2c1 (stereo not shown) [omeprazole]
exposures decrease [3]: ~ 40%

CC(C)c1nc(CN(C)C(=O)N[C@H](C(=O)N[C@@H](Cc2ccccc2)C[C@H](O)[C@H](Cc2ccccc2)NC(=O)OCc2cncs2)C(C)C)cs1 [Ritonavir]
change in (other) exposure parameters ([4]; in the presence of SMZ/TMP): < 20%
change in exposures [4]: ≤ 25%

CC(=O)Nc1ccc(O)cc1 [Acetaminophen]
Metabolic pathway [2]: Glucuronidation

COc1c(-c2ccc3cc(NS(C)(=O)=O)ccc3c2)cc(-n2ccc(=O)[nH]c2=O)cc1C(C)(C)CO [dasabuvir M1]
exposures decrease ([4]; in the presence of SMZ/TMP, data not shown): ≤ 19%

COc1cc(Cc2cnc(N)nc2N)cc(OC)c1OC [Trimethoprim]
AUC increase [1, 8]: 22%
Ctrough increase [1, 8]: 25%
changes in exposures (Cmax and AUC geometric mean ratios) [1, 9]: ≤ 25%
exposures increase [1, 9]: ≤ 20%
Metabolic pathway [2]: Weak to moderate CYP2C8 inhibitor; weak OCT2 inhibitor; MATE 1 inhibitor
increase in AUC [5]: 20%

COc1ccc2c3c1O[C@H]1C(=O)CC[C@H]4[C@@H](C2)N(C)CC[C@]314 [Hydrocodone]
Tmax [1]: 2 h
AUC increase [1, 8]: 90%
Cmax increase [1, 8]: 27%

COc1c(-c2ccc3cc(NS(C)(=O)=O)ccc3c2)cc(-n2ccc(=O)[nH]c2=O)cc1C(C)(C)C [Dasabuvir]
AUC increase ([4]; in the presence of SMZ/TMP): 33%
change in (other) exposure parameters ([4]; in the presence of SMZ/TMP): < 20%
exposures increase ([4]; in the presence of SMZ/TMP): ≤ 33%
change in exposures [4]: ≤ 25%

CN(C)CCC=C1c2ccccc2C=Cc2ccccc21 [Cyclobenzaprine]
median tmax [1, 7]: 5.0 h
Cmax decrease [1, 8]: 32%
AUC decrease [1, 8]: 40%
exposures decrease [1, 9]: up to 46%
exposures decrease ([1]; upon coadministration with the 3D regimen, listed as cyclobenzaprine): ≤ 40%
Metabolic pathway [2]: CYP3A4, 1A2, and 2D6 substrate

O=C1CN=C(c2ccccc2)c2cc(Cl)ccc2N1 [Nordiazepam]
Tmax [1]: 48 h
Tmax ([1]; 2 mg): 96 h
Cmax increase [1, 8]: 10% and < 20%
proportion of AUC extrapolated after the last measurable timepoint ([1]; with the 3D regimen): 20%
AUC from time zero to time t (AUCt) decrease ([1]; with the 3D regimen): 3%
proportion of AUC extrapolated after the last measurable timepoint ([1]; without the 3D regimen): 46%

CCCC(C)(COC(N)=O)COC(=O)NC(C)C (stereo not shown) [Carisoprodol]
Tmax [1]: 2 h
Cmax decrease [1, 8]: 46%
exposures decrease [1, 9]: ≤ 46%
subjects reporting somnolence [6]: five

CNCCC=C1c2ccccc2C=Cc2ccccc21 [Norcyclobenzaprine]
harmonic mean t½ [1, 10]: 53 h
median tmax [1, 10]: 24 h
Cmax change (increase or decrease) [1, 8]: < 20%
AUC decrease [1, 8]: 26%
harmonic mean t½ ([1]; medication alone): 86 h
median tmax ([1]; medication alone): 36 h
proportion of AUC extrapolated after the last measurable timepoint ([1]; with the 3D regimen): 21%
AUC from time zero to time t (AUCt) decrease ([1]; with the 3D regimen): 7%
proportion of AUC extrapolated after the last measurable timepoint ([1]; without the 3D regimen): 42%

COC(=O)N[C@H](C(=O)N1CCC[C@H]1C(=O)Nc1ccc([C@@H]2CC[C@@H](c3ccc(NC(=O)[C@@H]4CCCN4C(=O)[C@@H](NC(=O)OC)C(C)C)cc3)N2c2ccc(C(C)(C)C)cc2)cc1)C(C)C [Ombitasvir]
change in (other) exposure parameters ([4]; in the presence of SMZ/TMP): < 20%
change in exposures [4]: ≤ 25%

CCCC(C)(COC(N)=O)COC(N)=O [Meprobamate]
Tmax [1]: 3 to 4 h
AUC change (increase or decrease) [1, 8]: < 20%
Cmax change (increase or decrease) [1, 8]: < 20%

Cc1cnc(C(=O)N[C@H]2CCCCC/C=C\[C@@H]3C[C@@]3(C(=O)NS(=O)(=O)C3CC3)NC(=O)[C@@H]3C[C@@H](Oc4nc5ccccc5c5ccccc45)CN3C2=O)cn1 [Paritaprevir]
Tmax ([4]; both, human, plasma, oral, median tmax, in the presence of metformin): 5.5 h
Cmax decrease ([4]; in the presence of SMZ/TMP): 22%
change in (other) exposure parameters ([4]; in the presence of SMZ/TMP): < 20%
change in exposures [4]: ≤ 25%
Cmax decrease ([4]; with metformin): 37%
Ctrough increase ([4]; with metformin): 22%
